# “And” between values parts separate entries of the source, which are not always exact repeats. Identical values can stand only once. “Also recorded” adds a separate entry of the source. Like-named read-outs stand apart in the source and are kept apart here.
# Key:
# HEK293 cells = settings: 40 μM; for Proliferation of HEK293 (difference in absorbance between 450 and 620 nm), individual wells: WST-1
# Procedure: HEK293 cells were treated with the compound solution at 40 μM or the vehicle dimethyl sulfoxide (DMSO) for 24 hours, with the addition of 5% fetal ox-like serum for recognition of cell feasibility reliant on mitochondrial movement.
# Three wells were tested for each treatment. WST-1 reagent was added to each well, and the cells were incubated at 37° C.
# rat paw = assay: Histopathologic examination of carrageenan-treated rat paw (H&E, Masson's trichrome); assay type: in vivo; settings: for Rat paw collagen deposition, Masson's Trichrome stain / Rat paw histopathology, H&E, 10× magnification: 10×; for Rat paw histopathology, H&E: inflammatory reaction and edema: H&E stain
# Procedure: The rat paws were removed and promptly cleaned in saline solution. The specimens were then fixed in 10% natural formalin for two days, and then rinsed with running water overnight. The cleaned samples were then dehydrated in increasing concentrations of ethyl alcohol, beginning with 70% and ending with absolute alcohol.
# The samples were cleared by soaking them in xylol for 2 hours. The cleared samples were placed in a covered jar containing 50% paraffin in xylol for 3 hours at 37° C. The samples were then immersed in melting paraffin and maintained at 48° C. for 2 hours before being blocked in hard paraffin and cut into 5-micron sections. Hematoxylin and eosin (H&E) and Masson's trichrome were used to stain the sections. To prepare for histopathological investigation, sections of control rat paws, as well as rat paws treated with carrageenan alone or along with Compound 1, Compound 2, or indomethacin, were mounted with Canada balsam and coated with a coverslip.
# The density of the blue-green collagen is consistent with the relative amount of deposited total collagen fiber, which represents collagen synthesis, degradation, and remodeling—some of which is associated with inflammation.
# rat stomach [1] = assay: Ulcerogenic effect on rat stomach (histopathology); assay type: in vivo; settings: for Rat stomach collagen deposition, Masson's Trichrome stain, 10× / Rat stomach collagen deposition, Masson's Trichrome stain / Rat stomach collagen deposition, Masson's Trichrome stain, 40×: 20 mg/kg oral single dose, 24 hours; for Rat stomach collagen deposition, Masson's Trichrome stain: 10× and 40×; for Effect on gastric mucosa, in words: rat stomach
# Procedure: Rats were starved for 24 hours at a normal room temperature of 25° C. with a 12-hour light/dark cycle. The reference drug for comparison was indomethacin. All compounds were administered orally at a single dose of 20 mg/kg. The rats were sacrificed after 24 hours, and their stomachs were retrieved and cleansed with normal saline. Each group's stomachs were examined using binocular magnification to detect the presence of a gastric lesion on the mucosa. The stomachs were then preserved in 10% w/v formalin for histological analysis. Exemplary photomicrographs are included in FIGS. 5A to 5H, and FIGS. 6A to 6H, as discussed further below.
# This was accomplished by histopathologic examination of rat stomachs stained by Masson's Trichrome stain. See the photomicrographs of exemplary sections depicted in FIGS. 6A to 6H. Again, after application of Masson's Trichrome, the collagen fibrils are stained blue-green. The double-headed arrow represents collagen fibrils thickness in the submucosa.
# rat stomach [2] = assay: Ulcerogenic effect on rat stomach (histopathology); assay type: in vivo; settings: 20 mg/kg oral single dose, 24 hours; for Rat stomach gastric layers, H&E: 10×; for Rat stomach inflammatory reaction, H&E: 40×
# [3] = tested on: carrageenan-induced rat paw edema; assay: Carrageenan-induced paw edema in rats; assay type: in vivo; settings: 10 mg/kg oral; for Paw size: individual rats; for Paw size, Average: average over all measurements 0-5 hours
# Procedure: Carrageenan was injected subcutaneously into a rodent's paw to generate inflammation due to plasma extravasation, tissue proliferation, plasma protein release, and neutrophilic extravasation, all of which are caused by arachidonic acid digestion. The major phase of inflammation occurs after the carrageenan infusion, and lasts about two hours. This primary stage is associated with the emergence of histamine and serotonin. The next stage frequently is remodeling and edema, which lasts about five hours and begins at about the third hour after administration of carrageenan. The appearance of prostaglandins, proteases, and lysosomes is associated with this second stage of inflammation.
# Adult male albino rats weighing 120 g-150 g were divided into five groups of seven rats, allowed free access to food and water at 25° C. and 12 h light/dark cycle. Inflammation was generated in the rats by subplantar injection of 0.2 ml of 1% carrageenan solution in 0.9 percent saline (Sigma-Aldrich, St. Louis, Mo., USA), and injected into the right hind paw. A vernier caliper (SMIEC, Shanghai, China) was used to measure the thickness of the rat paws before and after carrageenan injection to provide a measure of the inflammation caused by carrageenan.
# Paw edema was measured at 0 minutes, 30 minutes, and 1, 2, 3, 4, and 5 hours following administration of the medication. Inhibition of edema was indicated by the reduction of increased thickness when comparing the treated and control groups.
SMILES,"Proliferation of HEK293 (difference in absorbance between 450 and 620 nm), individual wells (HEK293 cells; 24 hours)","Proliferation of HEK293 (difference in absorbance between 450 and 620 nm), Average (HEK293 cells; 24 hours, WST-1, three wells)","Rat paw collagen deposition, Masson's Trichrome stain (rat paw)","Rat paw histopathology, H&E, 10× magnification (rat paw)","Rat paw histopathology, H&E, 40× magnification (rat paw)","Rat paw histopathology, H&E: inflammatory reaction and edema (rat paw)","Rat stomach collagen deposition, Masson's Trichrome stain, 10× (rat stomach [1])","Rat stomach collagen deposition, Masson's Trichrome stain (rat stomach [1])","Rat stomach collagen deposition, Masson's Trichrome stain, 40× (rat stomach [1])","Rat stomach gastric layers, H&E (rat stomach [2])","Rat stomach inflammatory reaction, H&E (rat stomach [2])","Effect on rat paw edema, in words [3]",Paw size ([3]; 30 min),Paw size ([3]; 1 hour),Paw size ([3]; 2 hours),Paw size ([3]; 3 hours),Paw size ([3]; 4 hours),Paw size ([3]; 5 hours),"Paw size, Average [3] [cm]",Paw size ([3]; zero time),further results
"CCOC(=O)c1cn(-c2cc(C#N)ccc2O)cc(Oc2ccccc2)c1=O [Compound 2, ethyl-1-(5-cyano-2-hydroxyphenyl)-4-oxo-5-phenoxy-1,4-dihydropyridine-3-carboxylate]",1.0667 and 1.0476 and 1.0648,1.06,slight collagen deposition; also recorded: lowest,substantial decrease in both inflammatory reaction (black star) and edema,slight inflammatory reaction (black star) and slight edema,reduce inflammatory cell infiltration and alleviate edema with lesser collagen deposition; also recorded: substantial decrease in both inflammatory reaction (black star) and a pronounced decline in edema,slight collagen deposition,slight collagen deposition,slight collagen deposition,normal gastric layers,absence of any inflammatory reaction; also recorded: no sign of inflammatory reaction,demonstrated to treat paw swelling; also recorded: significant decreases in rat paw size; also recorded: dramatically reduced,0.7 cm (3×) and 0.65 cm (2×) and 0.55 cm (2×),0.55 cm and 0.5 cm (3×) and 0.45 cm (3×),0.45 cm (2×) and 0.4 cm (5×),0.35 cm and 0.4 cm (5×) and 0.45 cm,0.4 cm (5×) and 0.45 cm (2×),0.55 cm and 0.6 cm (5×) and 0.5 cm,0.524,0.75 cm (5×) and 0.7 cm (2×),"Effect on gastric mucosa, in words (rat stomach [1]): no effect on gastric mucosa integrity or mucosa collagen content; also recorded: devoid of side effects on gastric mucosa"
"Cc1cccc2[nH]c(C3CCCN(C(=O)c4ccccc4NCC(=O)O)C3)nc12 (stereo not shown) [Compound 1, [(2-{[3-(4-methyl-1H-benzimidazol-2-yl)piperidin-1-yl]carbonyl}phenyl)amino] acetic acid]",1.0653 and 1.0573 and 1.0547,1.06,slight collagen deposition,"significant decrease in dermal thickness, inflammatory reaction in the deep dermis (black star), and moderate improvement in edema",slight inflammatory reaction (black star) and slight edema,reduce inflammatory cell infiltration and alleviate edema with lesser collagen deposition; also recorded: marked improvement in the degree of edema and the inflammatory cell infiltration,normal collagen deposition,normal collagen deposition,normal collagen deposition,normal gastric layers,no sign of inflammatory reaction,demonstrated to treat paw swelling; also recorded: significant decreases in rat paw size; also recorded: dramatically reduced,0.7 cm (3×) and 0.65 cm (4×),0.55 cm and 0.5 cm (4×) and 0.45 cm (2×),0.5 cm (2×) and 0.45 cm (3×) and 0.4 cm (2×),0.4 cm (3×) and 0.35 cm and 0.45 cm (3×),0.45 cm (2×) and 0.4 cm (4×) and 0.5 cm,0.55 cm and 0.6 cm (4×) and 0.65 cm (2×),0.542,0.75 cm (4×) and 0.7 cm (3×),"Effect on gastric mucosa, in words (rat stomach [1]): no effect on gastric mucosa integrity or mucosa collagen content; also recorded: devoid of side effects on gastric mucosa; Rat stomach inflammatory reaction, H&E (rat stomach [2]; listed as compound 1): absence of any inflammatory reaction"
"Cc1ccc(-c2cc(C(F)(F)F)nn2-c2ccc(S(N)(=O)=O)cc2)cc1 [Celecoxib, reference compound]",–,–,–,–,–,–,–,–,–,–,–,dramatically reduced,–,–,–,–,–,–,–,–,"Cytotoxicity: morphological changes or damages in HEK293 cells (HEK293 cells; human, 24 h): caused changes and damages in HEK293 cells"
"O=C(O)Cc1ccccc1Nc1c(Cl)cccc1Cl [Diclofenac, reference compound]",–,–,–,–,–,–,–,–,–,–,–,significantly reduced rat paw edema,0.7 cm and 0.65 cm (4×) and 0.6 cm (2×),0.55 cm and 0.5 cm (3×) and 0.4 cm (2×) and 0.45 cm,0.45 cm (4×) and 0.4 cm (3×),0.4 cm (4×) and 0.35 cm (2×) and 0.45 cm,0.35 cm (2×) and 0.4 cm (3×) and 0.45 cm (2×),0.55 cm (3×) and 0.6 cm (4×),0.518,0.7 cm (5×) and 0.75 cm (2×),"Proliferation of HEK293 (difference in absorbance between 450 and 620 nm), Average (HEK293 cells; human, 24 h): 1"
"COc1ccc2c(c1)c(CC(=O)O)c(C)n2C(=O)c1ccc(Cl)cc1 [Indomethacin, reference compound]",–,–,slight collagen deposition,significant decrease in inflammatory reaction (black star) and a moderate decrease in edema,slight inflammatory reaction (black star) and slight edema,"significant decrease in the degree of inflammatory reaction (black star), and a moderate decrease in edema",significant collagen deposition,significant collagen deposition,collagen deposition,slight degeneration of gastric layers,absence of any inflammatory reaction; also recorded: no sign of inflammatory reaction,significantly reduced rat paw edema; also recorded: dramatically reduced,0.7 cm and 0.6 cm (4×) and 0.65 cm (2×),0.5 cm (2×) and 0.4 cm (4×) and 0.45 cm,0.45 cm and 0.4 cm (3×) and 0.35 cm (3×),0.4 cm (5×) and 0.35 cm (2×),0.35 cm (4×) and 0.4 cm (3×),0.5 cm and 0.55 cm (4×) and 0.45 cm (2×),0.494,0.7 cm (2×) and 0.75 cm (5×),–
